Measurements reported in ChEMBL document CHEMBL3779816, “Microwave-assisted regioselective direct CH arylation of thiazole derivatives leading to increased 1receptor affinity” (Medchemcomm, 2016).

Experiments:
[1] = species: Rattus norvegicus; assay: Displacement of [3H]di-o-tolylguanidine from sigma 2 receptor in rat liver membranes at 1 uM after 120 mins by liquid scintillation spectrometry in presence of (+)-pentazocine; format: cell membranes; conditions: Membrane
[2] = biological target: Sigma non-opioid intracellular receptor 1 (Cavia porcellus, UniProt Q60492); assay: Displacement of [3H](+)-pentazocine from sigma 1 receptor in guinea pig brain membranes after 150 mins by liquid scintillation spectrometry; format: cell membranes, Membrane
[3] = Displacement of [3H]di-o-tolylguanidine from sigma 2 receptor in rat liver membranes after 120 mins by liquid scintillation spectrometry in presence of (+)-pentazocine; format: cell membranes, Membrane

Chain of Sigma non-opioid intracellular receptor 1 (Q60492 whole entry): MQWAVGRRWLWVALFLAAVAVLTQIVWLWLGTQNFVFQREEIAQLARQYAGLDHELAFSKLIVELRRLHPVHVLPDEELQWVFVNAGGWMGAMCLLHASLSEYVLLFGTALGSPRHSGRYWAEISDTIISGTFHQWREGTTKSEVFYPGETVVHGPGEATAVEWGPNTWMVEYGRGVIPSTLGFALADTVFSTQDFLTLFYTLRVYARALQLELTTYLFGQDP

Compound | inhibition [1] | Ki [2] | Ki [3]
COC1Cc2cc(-c3ccc(C)cc3)sc2C2(CCN(Cc3ccccc3)CC2)O1 (stereo unspecified) | 44% |  | 
OC1(c2nccs2)CCN(Cc2ccccc2)CC1 |  | 33 nM | 1800 nM
COC1Cc2c(-c3ccc(C)cc3)csc2C2(CCN(Cc3ccccc3)CC2)O1 (stereo unspecified) | 34% |  | 
Cc1ccccc1NC(=N)Nc1ccccc1C [DITOLYLGUANIDINE] |  |  | 107 nM
COC1Cc2ccsc2C2(CCN(Cc3ccccc3)CC2)O1 (stereo unspecified) | 16% |  | 
Cc1ccc(-c2cnc(C3(O)CCN(Cc4ccccc4)CC3)s2)cc1 |  | 7 nM | 457 nM
O=C(CCCN1CCC(O)(c2ccc(Cl)cc2)CC1)c1ccc(F)cc1 [HALOPERIDOL] |  |  | 22 nM
Cc1ccc(-c2csc(C3(O)CCN(Cc4ccccc4)CC3)n2)cc1 |  | 3.8 nM | 154 nM
